According to patent US10709724B2, “Methods of treating mitochondrial dysfunction” (Ecole Polytechnique Federale de Lausanne (EPFL), priority 2011, dated 2020):

Key:
C57Bl/6J mice [1] = assay: Sirtuin activity and mitochondrial biogenesis in tissues after chronic NR feeding; assay type: in vivo
Method: (§1) mRNA and mtDNA Analysis. Total RNA was prepared using TRIzol (Invitrogen) according to the manufacturer's instructions. RNA was treated with DNase, and 2 μg of RNA was used for reverse transcription (RT). cDNA was purified on QIAquick PCR cleanup columns (Qiagen, Valencia, Calif., USA). 50× diluted cDNA was used for RT-quantitative PCR (RT-VCR) VCR) reactions (Bai et al., 2007). The RT-qPCR reactions were performed using the Light-Cycler system (Roche Applied Science) and a qPCR Supermix (Qiagen) with the primers for mice summarized in Table 1 and 4, and with the primers for worms summarized on Table 7. mtDNA quantification was performed as described (Lagouge et al., 2006) with the primers indicated in Table 2 and 5.
(§2) Immunoprecipitation, SDS-PAGE, Western Blotting. Cells were lysed in lysis buffer (50 mM Tris, […], EDTA 1 mM, NP40 1%, nicotinamide 5 mM, Na-butyrate 1 in M, protease inhibitors pH7.4). Proteins were separated by SDS-PAGE and transferred onto nitrocellulose membranes. The origin of the primary and secondary antibodies used can be found as supplemental experimental procedures. Reactions were developed by enhanced chemiluminescence (Amersham, Little Chalfont, UK), PGC-1α, FOXO1 and Ndufa9 acetylation levels were analyzed by immunoprecipitation from cellular or nuclear lysates of tissues with anti-PGC-1α (Millipore), anti-FOXO1 (Cell Signaling, Danvers, Mass., USA) and anti-Ndufa9 (Abcam) antibody followed by Western blot using an acetyl-lysine antibody (Cell Signaling) that was normalized to total PGC-1a/FOXO1/Ndufa9 levels (Lagouge et al., 2006; Rodgers et al., 2005). In HEK293T cells HA-tagged PGC-1α was overexpressed and was immunoprecipitated using an anti-HA. In C2C12 myotubes, FLAG-HA tagged PGC-1α was introduced through adenoviral delivery 2 days before treatments, then IP was performed using anti-FLAG antibody and samples were processed as described. All blots were quantified by densitometry using ImageJ software. Poly(ADP-Ribose) detection was performed as previously described with slight modifications (Bai et al., PARP-1 inhibition increases mitochondrial metabolism through SIRT1 activation. Cell Metab 13, 461-468. (2011)) Briefly, PAR was detected by using a monoclonal anti-PAR antibody (Alexis, Lausanne Switzerland) by Western blotting of total protein lysates, using either […] of total worm protein lysates, […] of liver protein lysate or 200 g of muscle total protein extracts. PGC-1 acetylation was determined using PGC-1 immunoprecipitates from 2 mg of protein extracts, as described in Canto et al. (Canto et al., AMPK regulates energy expenditure by modulating NAD+ metabolism and SIRT1 activity. Nature 458, 1056 (2009)).
Mitochondrial DNA Measurement The assay was performed as described (Lagouge et al., 2006). DNA. was extracted using the standard proteinase K digestion following phenol-chloroform extraction. Mitochondrial and genomic DNA was determined using specific primers in qPCR reactions (primers summarized in Table 2 and 5.) and was expressed as percentage of WT.
Determination of Protein Acetylation Status PGC-1α, FOXO1 and Ndufa9 acetylation was analyzed by immunoprecipitation of PGC-1, FOXO1 and Nduf9a from nuclear lysates of tissues with anti-PGC-1α (Millipore), anti-FOXO1 (1 mg, Cell Signaling, Danvers, Mass., USA), or Ndufa9 (Abeam) antibody followed by Western blot using an acetyl-lysine antibody (Cell Signaling) that was normalized to total PGC-1α/FOXO1/Ndufa9 (Canto et al., 2009). Tribulin acetylation was assessed by Western blotting of total protein samples by acetylated tubulin-specific antibody (Sigma) that was then normalized for total tubrilin (Santa Cruz).

C57Bl/6J mice [2] = assay: NAD+ metabolism in tissues after chronic NR feeding; assay type: in vivo
Method: as §1, §2
NAD^+ NAM Determination. NAD^+ levels in cultured cells were determined using a commercial kit (Enzychrom™, BioAssays Systems, CA). For tissue samples NAD^+ and NAM levels were determined as described in (Sauve et al., 2005). In brief, to a weighed aliquot of frozen pulverized tissue we added as standards, ^18O-NAD^+ (typically 2.00 nmol) and ^18O-NAM (typically 2.00 nmol). 70 L of ice-cold 7% perchloric acid was then added and the sample was vortexed and sonicated three times, then centrifuged. Clear supernatant was removed and neutralized by additions of 3 M NaOH and 1 M phosphate buffer (pH=9), then centrifuged. Clear supernatant was injected onto HPLC C-18 column with 20 mM ammonium acetate eluent to separate NAD^+ and NAM from other cellular components, NAD^+ and NAM peaks (260 nm absorbance) were collected. Collections were lyophilized to dryness and subjected to MALDI-TOF analysis. For NAD^+ measurement, ratio of intensities for m/z=664 and 666 peaks, corresponding to ^16O- and ^18O-NAD^+ isotopomers, was multiplied by 2.00 nmol and then divided by tissue weight to determine NAD+ concentration in the sample. […]

SIRT1 = SIRT1 activity (PGC-1α acetylation) and SIRT1 protein in C2C12 myotubes; assay type: cell-based
Method: as §2

PDK4 and UCP-3 promoters = assay: ChIP of PGC-1α promoter occupancy in C2C12 myotubes; assay type: cell-based; conditions: 1 μM, 48 h
Method: Chromatin Immunoprecipitation (ChIP). ChIP was performed according to (Bai et al., 2007). FLAG-HA-PGC-1 (Rodgers et al., 2005) was introduced by adenoviral transfer into C2C12 myotubes after 48 h of differentiation and cells were cultured for an additional 2 days. […] Thereafter ChIP was performed using anti-FLAG (Sigma) and anti-TNF-R1 (Santa Cruz) as described (Bai et al., 2007). Pelleted DNA was quantified by qPCR using the primers against PDK4 and UCP-3 promoters flanking the nuclear receptor site (Table 3 and 6). The results were normalized for the signal of the respective inputs (vehicle/PJ34-treated) and were expressed as a percentage. The signal of anti-TNF-R1 (non-specific antibody) was subtracted from the anti-FLAG signal (specific) and the specific signal was plotted. Primers for ChIP are summarized in Supplementary Table 3 and 6.

SMILES: NC(=O)c1ccc[n+]([C@@H]2O[C@H](CO)[C@@H](O)[C@H]2O)c1 [NR, nicotinamide riboside]
- expression of oxidative metabolism regulators and mitochondrial genes in quadriceps muscle (C57Bl/6J mice [1]; HFD 16 weeks): either an elevated expression or a strong tendency towards an increase
- mitochondrial DNA content in muscle (C57Bl/6J mice [1]; HFD 16 weeks): increased in muscle
- mitochondrial proteins (Complex V ATP synthase subunit α, porin) in muscle, liver and BAT (C57Bl/6J mice [1]; HFD 16 weeks): prominent increase in mitochondrial proteins
- mitochondrial proteins in brain or WAT (C57Bl/6J mice [1]; HFD 16 weeks): such change was not observed in brain or WAT
- acetylation of SIRT1 and SIRT3 targets (FOXO1, SOD2) in skeletal muscle, liver and BAT (C57Bl/6J mice [1]; HFD 16 weeks, NR 400 mg/kg/day): prominent deacetylation
- acetylation status of the SIRT2 target tubulin (C57Bl/6J mice [1]; NR 400 mg/kg/day): could not detect changes
- NAD+ levels in liver and muscle (C57Bl/6J mice [2]; CD and HFD, chronic NR 400 mg/kg/day): increased NAD^+ levels
- NAD+ in BAT (C57Bl/6J mice [2]; chronic NR 400 mg/kg/day): higher in the BAT of NR-fed mice, but only on HFD
- NAD+ levels in brain or white adipose tissue (WAT) (C57Bl/6J mice [2]; chronic NR 400 mg/kg/day): but not in others, such as brain or white adipose tissue (WAT)
- NADH levels in muscle (C57Bl/6J mice [2]; gastrocnemius, HFD 16 weeks): largely diminished
- nicotinamide (NAM) levels in muscle (C57Bl/6J mice [2]; gastrocnemius, HFD 16 weeks): largely diminished
- Nampt mRNA and protein levels (C57Bl/6J mice [2]; quadriceps, HFD 16 weeks): levels were also similar
- mRNA expression of NMNAT enzymes (C57Bl/6J mice [2]; quadriceps, HFD 16 weeks): could not detect differences

SMILES: CN(C)CC(=O)Nc1ccc2[nH]c(=O)c3ccccc3c2c1 [PJ34]
- SIRT1 protein levels (SIRT1; 24 hrs): did not change SIRT1 protein levels
- PGC-1α acetylation (SIRT1 activation) (SIRT1; 24 hrs, dose-dependent (FIG. 6F)): deacetylation of PGC-1α
- SIRT1 function (PGC-1α acetylation) during H2O2 treatment (SIRT1; H2O2 500 μM, 6 hrs, PJ34 1 μM): enhanced SIRT1 function
- SIRT1 protein levels during H2O2 treatment (SIRT1; H2O2 500 μM, 6 hrs, PJ34 1 μM): SIRT1 protein levels did not change
- PGC-1 binding to the UCP3 promoter (PDK4 and UCP-3 promoters): not regulated through the binding of PGC-1 to its promoter
- PGC-1α recruitment to the PDK4 promoter (PDK4 and UCP-3 promoters): increased PGC-1α recruitment to target-genes
